Reference: patent US20230398130A1, “METHODS AND COMPOSITIONS FOR DIFFERENTIATING STEM CELLS” (Massachusetts Institute of Technology, priority 2020, published 2023)

What was measured:
ISC-enriched organoids [1] = assay: Primary screen, 384-well 2.5-D organoid differentiation (ENR+CD, 6 days): basal lysozyme secretion (LYZ.NS); type: cell-based, murine; conditions: for Dose.FC.LYZ.NS: FC vs plate median; for Z.LYZ.NS: standard z score of FC
Description: (§1) High-throughput screening.

ISC-enriched organoids [2] = assay: Primary screen, 384-well 2.5-D organoid differentiation (ENR+CD, 6 days): carbachol-induced lysozyme secretion (LYZ.S); type: cell-based, murine; conditions: FC vs plate median
Description: as §1

ISC-enriched organoids [3] = assay: Primary screen, 384-well 2.5-D organoid differentiation (ENR+CD, 6 days, Target Selective Inhibitor Library, vs whole-plate median): ATP (CellTiter-Glo 3D, CTG); conditions: for Dose.FC.CTG: FC vs plate median; for Z.CTG: standard z score of FC
[4] = primary screen, dose 0.08 uM, ENR+CD 6 days
[5] = primary screen, dose 0.40 uM, ENR+CD 6 days
[6] = primary screen, dose 2.00 uM, ENR+CD 6 days
[7] = primary screen, dose 10.00 uM, ENR+CD 6 days

Structure (SMILES) | Dose.FC.LYZ.NS (ISC-enriched organoids [1]; Dose 0.08 uM, ENR+CD, 6 days) | Z.LYZ.NS (ISC-enriched organoids [1]; Dose 0.08 uM) | Dose.FC.LYZ.NS (ISC-enriched organoids [1]; Dose 0.40 uM, ENR+CD, 6 days) | Z.LYZ.NS (ISC-enriched organoids [1]; Dose 0.40 uM) | Dose.FC.LYZ.NS (ISC-enriched organoids [1]; Dose 2.00 uM, ENR+CD, 6 days) | Z.LYZ.NS (ISC-enriched organoids [1]; Dose 2.00 uM) | Dose.FC.LYZ.NS (ISC-enriched organoids [1]; Dose 10.00 uM, ENR+CD, 6 days) | Z.LYZ.NS (ISC-enriched organoids [1]; Dose 10.00 uM) | Dose.FC.LYZ.S (ISC-enriched organoids [2]; Dose 0.08 uM, ENR+CD, 6 days) | Dose.FC.LYZ.S (ISC-enriched organoids [2]; Dose 0.40 uM, ENR+CD, 6 days) | Dose.FC.LYZ.S (ISC-enriched organoids [2]; Dose 2.00 uM, ENR+CD, 6 days) | Dose.FC.LYZ.S (ISC-enriched organoids [2]; Dose 10.00 uM, ENR+CD, 6 days) | Dose.FC.CTG (ISC-enriched organoids [3]; Dose 0.08 uM, ENR+CD, 6 days) | Z.CTG (ISC-enriched organoids [3]; Dose 0.08 uM) | Dose.FC.CTG (ISC-enriched organoids [3]; Dose 0.40 uM, ENR+CD, 6 days) | Z.CTG (ISC-enriched organoids [3]; Dose 0.40 uM) | Dose.FC.CTG (ISC-enriched organoids [3]; Dose 2.00 uM, ENR+CD, 6 days) | Z.CTG (ISC-enriched organoids [3]; Dose 2.00 uM) | Dose.FC.CTG (ISC-enriched organoids [3]; Dose 10.00 uM, ENR+CD, 6 days) | Z.CTG (ISC-enriched organoids [3]; Dose 10.00 uM) | further results
CNC(=O)[C@H](Cc1ccccc1)NC(=O)[C@H](CC(C)C)[C@H](CSc1cccs1)C(=O)NO [Batimastat (BB-94)] | – | – | – | – | – | – | – | – | – | – | – | – | – | – | – | – | – | – | – | – | Dose.FC.LYZ.NS (ISC-enriched organoids [1]; [4]): −0.003 log 2 fold change; Z.LYZ.NS (ISC-enriched organoids [1]; primary screen, dose 0.08 uM): −0.025; Dose.FC.LYZ.NS (ISC-enriched organoids [1]; [5]): 0.005 log 2 fold change; Z.LYZ.NS (ISC-enriched organoids [1]; primary screen, dose 0.40 uM): 0.042; Dose.FC.LYZ.NS (ISC-enriched organoids [1]; [6]): 0.081 log 2 fold change; Z.LYZ.NS (ISC-enriched organoids [1]; primary screen, dose 2.00 uM): 0.707; Dose.FC.LYZ.NS (ISC-enriched organoids [1]; [7]): −0.075 log 2 fold change; Z.LYZ.NS (ISC-enriched organoids [1]; primary screen, dose 10.00 uM): −0.649; Dose.FC.LYZ.S (ISC-enriched organoids [2]; [4]): 0.053 log 2 fold change; Dose.FC.LYZ.S (ISC-enriched organoids [2]; [5]): 0.028 log 2 fold change; Dose.FC.LYZ.S (ISC-enriched organoids [2]; [6]): 0.056 log 2 fold change; Dose.FC.LYZ.S (ISC-enriched organoids [2]; [7]): −0.107 log 2 fold change; Dose.FC.CTG (ISC-enriched organoids [3]; [4]): 0.035 log 2 fold change; Z.CTG (ISC-enriched organoids [3]; primary screen, dose 0.08 uM): 0.084; Dose.FC.CTG (ISC-enriched organoids [3]; [5]): −0.095 log 2 fold change; Z.CTG (ISC-enriched organoids [3]; primary screen, dose 0.40 uM): −0.226; Dose.FC.CTG (ISC-enriched organoids [3]; [6]): −0.049 log 2 fold change; Z.CTG (ISC-enriched organoids [3]; primary screen, dose 2.00 uM): −0.117; Dose.FC.CTG (ISC-enriched organoids [3]; [7]): −0.283 log 2 fold change; Z.CTG (ISC-enriched organoids [3]; primary screen, dose 10.00 uM): −0.676
O=C(/C=C/c1cccc(S(=O)(=O)Nc2ccccc2)c1)NO [Belinostat (PXD101)] | – | – | – | – | – | – | – | – | – | – | – | – | – | – | – | – | – | – | – | – | Dose.FC.LYZ.NS (ISC-enriched organoids [1]; [4]): 0.008 log 2 fold change; Z.LYZ.NS (ISC-enriched organoids [1]; primary screen, dose 0.08 uM): 0.067; Dose.FC.LYZ.NS (ISC-enriched organoids [1]; [5]): 0.129 log 2 fold change; Z.LYZ.NS (ISC-enriched organoids [1]; primary screen, dose 0.40 uM): 1.125; Dose.FC.LYZ.NS (ISC-enriched organoids [1]; [6]): −0.173 log 2 fold change; Z.LYZ.NS (ISC-enriched organoids [1]; primary screen, dose 2.00 uM): −1.510; Dose.FC.LYZ.NS (ISC-enriched organoids [1]; [7]): −0.196 log 2 fold change; Z.LYZ.NS (ISC-enriched organoids [1]; primary screen, dose 10.00 uM): −1.709; Dose.FC.LYZ.S (ISC-enriched organoids [2]; [4]): −0.059 log 2 fold change; Dose.FC.LYZ.S (ISC-enriched organoids [2]; [5]): 0.042 log 2 fold change; Dose.FC.LYZ.S (ISC-enriched organoids [2]; [6]): −0.264 log 2 fold change; Dose.FC.LYZ.S (ISC-enriched organoids [2]; [7]): −0.327 log 2 fold change; Dose.FC.CTG (ISC-enriched organoids [3]; [4]): −0.227 log 2 fold change; Z.CTG (ISC-enriched organoids [3]; primary screen, dose 0.08 uM): −0.543; Dose.FC.CTG (ISC-enriched organoids [3]; [5]): −0.055 log 2 fold change; Z.CTG (ISC-enriched organoids [3]; primary screen, dose 0.40 uM): −0.133; Dose.FC.CTG (ISC-enriched organoids [3]; [6]): −0.782 log 2 fold change; Z.CTG (ISC-enriched organoids [3]; primary screen, dose 2.00 uM): −1.868; Dose.FC.CTG (ISC-enriched organoids [3]; [7]): −1.122 log 2 fold change; Z.CTG (ISC-enriched organoids [3]; primary screen, dose 10.00 uM): −2.679
CC(C)C[C@H](NC(=O)[C@@H](NC(=O)c1cccc(-c2ccccc2)n1)[C@@H](C)O)B(O)O [CEP-18770 (Delanzomib)] | −0.108 log 2 fold change | −0.937 | −0.076 log 2 fold change | −0.664 | −0.063 log 2 fold change | −0.546 | −0.035 log 2 fold change | −0.308 | −0.179 log 2 fold change | −0.159 log 2 fold change | −0.180 log 2 fold change | −0.149 log 2 fold change | −0.953 log 2 fold change | −2.276 | −1.642 log 2 fold change | −3.923 | −0.990 log 2 fold change | −2.364 | −1.148 log 2 fold change | −2.742 | –
O=C(NC(NC(=S)Nc1ccc(F)c([N+](=O)[O-])c1)C(Cl)(Cl)Cl)C(c1ccccc1)c1ccccc1 (stereo not shown) [CGK733] | 0.099 log 2 fold change | 0.863 | −0.026 log 2 fold change | −0.222 | −0.099 log 2 fold change | −0.865 | −0.122 log 2 fold change | −1.063 | 0.008 log 2 fold change | −0.018 log 2 fold change | −0.125 log 2 fold change | −0.230 log 2 fold change | −0.362 log 2 fold change | −0.864 | −0.093 log 2 fold change | −0.221 | −0.244 log 2 fold change | −0.582 | −0.478 log 2 fold change | −1.143 | –
Nc1ncnc2n[nH]c(Nc3ccc(F)cc3)c12 [CGP57380] | 0.218 log 2 fold change | 1.900 | −0.041 log 2 fold change | −0.354 | −0.055 log 2 fold change | −0.477 | −0.037 log 2 fold change | −0.321 | 0.096 log 2 fold change | 0.054 log 2 fold change | −0.095 log 2 fold change | −0.088 log 2 fold change | 0.108 log 2 fold change | 0.258 | −0.293 log 2 fold change | −0.700 | −0.460 log 2 fold change | −1.098 | 0.055 log 2 fold change | 0.132 | –
